# Assays:
# [1] = tested on: B16-F0 melanoma cell line; experiment: Melanin production suppressing activity in B16-F0 melanoma cells; format: cell-based, mouse; conditions: for Melanin amount (% of control): three days with 2 mM theophylline; for Suppressive action on melanin production (in words): summary of Table 2, compared with arbutin or kojic acid
# Experimental: B16-F0 melanoma cell line of mouse origin, purchased from Dainippon Pharmaceutical Co., Ltd. was used in the experiment. In 60-mm petri dish, 200,000 cells were incubated for five days in a medium (D-MEM*+10% FBS*) supplemented with 0.1% D-glucosamine hydrochloride, an inhibitor of carbohydrate synthesis, to halt melanin synthesis and turn the culture white. Following the 5-day culture, the cells were washed with PBS(−)* to remove D-glucosamine hydrochloride, and 2 mM theophylline (250-fold concentrated solution/distilled water), a phosphodiesterase inhibitor, was added to raise intracellular cAMP and thereby promote the recovery of tyrosinase synthesis. At the same time, a test compound (250-fold concentrated solution/PBS(−)) was added. Three days after the addition of theophylline and the test compound, the cells were harvested by trypsin treatment. The cell pellets were resuspended in 1 ml of PBS(−), 0.1 ml of which was used for counting cells, and 0.9 ml for melanin determination. Determination of melanin was carried out by washing the cell pellets once with 5% trichloroacetic acid, ethanol/diethyl ether (3:1), and then diethyl ether, adding 1 ml of 2 N NaOH to lyse the cells, measuring optical density at 420 nm, and comparing the result with a calibration curve produced with reference standard.
# elastase = experiment: Elastase inhibiting activity (Suc(Ome)-Ala-Ala-Pro-Val-MCA fluorescence); format: biochemical; conditions: for Elastase inhibition rate (%): 25° C., pH 7.5; for Elastase inhibiting activity (in words): summary of Table 3
# Experimental: 96-well plates were used. 1 mM of Suc(Ome)-Ala-Ala-Pro-Val-MCA, 30 μl of a test sample, 210 μl of Tris-NaCl Buffer (25° C., pH 7.5) and 30 μl of 1 unit/ml elastase were added and fluorescence was measured every minute (Ex. 360/40 nm, Em. 460/40 nm). Inhibition rates of elastase activity were determined based on a calibration curve produced with AMC (7-amino-4-methyl-coumarin) reference standard.
# [2] = molecular target: T1, Tyrosine hydroxylase from rat brain (Rattus norvegicus, UniProt P04177); experiment: Tyrosine hydroxylase inhibiting activity; format: biochemical; conditions: for Tyrosine hydroxylase inhibition rate: 37° C., 40 minutes, pH 6.0
# T1 construct: Tyrosine hydroxylase from rat brain was used in the test; from tissue; host or cells: rat brain
# T1 sequence (P04177 whole entry): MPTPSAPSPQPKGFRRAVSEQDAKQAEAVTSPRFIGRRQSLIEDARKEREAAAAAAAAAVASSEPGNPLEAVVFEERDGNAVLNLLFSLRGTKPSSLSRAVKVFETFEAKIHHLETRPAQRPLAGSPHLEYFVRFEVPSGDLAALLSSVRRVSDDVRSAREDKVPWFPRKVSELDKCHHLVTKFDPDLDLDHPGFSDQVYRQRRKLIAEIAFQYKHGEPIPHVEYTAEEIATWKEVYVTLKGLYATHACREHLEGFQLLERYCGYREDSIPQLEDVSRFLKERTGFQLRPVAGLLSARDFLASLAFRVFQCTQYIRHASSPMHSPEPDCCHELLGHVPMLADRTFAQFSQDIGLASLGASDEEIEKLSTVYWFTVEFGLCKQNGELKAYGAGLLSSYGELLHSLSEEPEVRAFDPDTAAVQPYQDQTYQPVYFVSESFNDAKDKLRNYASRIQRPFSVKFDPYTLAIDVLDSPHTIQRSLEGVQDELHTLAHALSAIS
# Experimental: Tyrosine hydroxylase from rat brain was used in the test.
# A test compound added to 100 μM tyrosine containing L-[3,5-^3H] tyrosine (0.5 μCi/assay), 1 mg of tyrosine hydroxylase, 0.2 mM of (6R)-5,6,7,8-tetrahydro-L-biopterin, 1.8 mg/ml catalase, 5 mM dithiothreitol (in MES buffer, pH 6.0) was incubated at 37° C. for 40 minutes. The reaction was terminated by addition of 7.5% charcoal in 1 M hydrochloric acid.
# ^3H2O derived from 3,4-dihydroxyphenylalanine (DOPA) was determined by liquid scintillation.
Elastase inhibition rate (%) (elastase; 0.03 mM),Elastase inhibition rate (%) (elastase; 0.1 mM),Elastase inhibition rate (%) (elastase; 0.3 mM),Elastase inhibition rate (%) (elastase; 1 mM),Tyrosine hydroxylase inhibition rate ([2]; test compound 0.1 mM) [%],Tyrosine hydroxylase inhibition rate ([2]; test compound 1 mM) [%],SMILES,Melanin amount (% of control) ([1]; 0.1 mM),Melanin amount (% of control) ([1]; 0.3 mM),Melanin amount (% of control) ([1]; 1 mM),Melanin amount (% of control) ([1]; 0.03 mM),Suppressive action on melanin production (in words) [1],Elastase inhibiting activity (in words) (elastase),Melanin amount (% of control) ([1]; 10 mM),Tyrosine hydroxylase inhibiting activity (in words) ([2]; summary of Table 1)
,,,,,,"OC[C@H]1O[C@@H](Oc2ccc(O)cc2)[C@H](O)[C@@H](O)[C@@H]1O [Arbutin, reference compound]",97.29 % of control,88.86 % of control,83.02 % of control,,,,,
25.29,56.87,77.45,93.01,,,"CC(C)C[C@H](NC(=O)N[C@H](C(=O)N[C@@H](CCC(N)=O)C(=O)N[C@@H](C)C=O)[C@@H]1CCNC(=N)N1)C(=O)O [Elastinal, reference compound]",,,,,,,,
94.74,,,,,,"O=C([O-])CCCCCNC(=O)CCCCC1CC[S][Zn][S]1.[Na+] (centres unmarked) [Example 5, N-(6,8-dimercaptooctanoyl)-6-aminohexanoic acid sodium salt zinc chelate compound]",27.69 % of control,9.85 % of control,,64.43 % of control,potent suppressive action on melanin production,comparable to Elastinal,,
83.33,,,,,,"O=C(CCCCC1CC[S][Zn][S]1)NC(Cc1ccccc1)C(=O)[O-].[Na+] (centres unmarked) [Example 7, N-(6,8-dimercaptooctanoyl)phenylalanine sodium salt zinc chelate compound]",37.78 % of control,,,71.43 % of control,potent suppressive action on melanin production,comparable to Elastinal,,
7.41,68.52,88.89,,,,"CSCCC(NC(=O)CCCCC1CC[S][Zn][S]1)C(=O)O (centres unmarked) [Example 9, N-(6,8-dimercaptooctanoyl)methionine zinc chelate compound]",50.18 % of control,16.41 % of control,,63.05 % of control,potent suppressive action on melanin production,comparable to Elastinal,,
,,,,,,"O=c1cc(CO)occ1O [Kojic acid, reference compound]",92.70 % of control,88.04 % of control,68.80 % of control,,,,18.73 % of control,
,,,,11,10,"O=C(CCCCC1CCSS1)NCCS(=O)(=O)[O-].[Na+] (stereo not drawn) [Reference Example 1, N-α-lipoylaminoethanesulfonic acid sodium salt]",,,,,,,,
−2.94,11.76,10.29,,2,1,"O=C(O)CCCCC1CCSS1 (stereo not drawn) [α-lipoic acid, reference compound]",,,,,,did not show any elastase inhibiting activity,,no tyrosine hydroxylase inhibiting activity

SMILES,Elastase inhibition rate (%) (elastase; 0.03 mM),Elastase inhibition rate (%) (elastase; 0.1 mM),Elastase inhibition rate (%) (elastase; 0.3 mM),Elastase inhibition rate (%) (elastase; 1 mM),Tyrosine hydroxylase inhibition rate ([2]; test compound 0.1 mM) [%],Tyrosine hydroxylase inhibition rate ([2]; test compound 1 mM) [%],Melanin amount (% of control) ([1]; 0.1 mM),Melanin amount (% of control) ([1]; 0.3 mM),Melanin amount (% of control) ([1]; 1 mM),Melanin amount (% of control) ([1]; 0.03 mM),Suppressive action on melanin production (in words) [1],Elastase inhibiting activity (in words) (elastase),Melanin amount (% of control) ([1]; 10 mM),Tyrosine hydroxylase inhibiting activity (in words) ([2]; summary of Table 1)
"O=C(CCCCC1CC[S][Zn][S]1)NCCS(=O)(=O)[O-].[Na+] (centres unmarked) [Example 1, N-(6,8-dimercaptooctanoyl)aminoethanesulfonic acid sodium salt zinc chelate compound]",,,,,15,53,30.01 % of control,12.28 % of control,,78.33 % of control,potent suppressive action on melanin production,,,
"O=C([O-])CCCNC(=O)CCCCC1CC[S][Zn][S]1.[Na+] (centres unmarked) [Example 6, N-(6,8-dimercaptooctanoyl)-γ-amino-n-butyric acid sodium salt zinc chelate compound]",78.95,,,,,,29.20 % of control,9.73 % of control,,61.18 % of control,potent suppressive action on melanin production,comparable to Elastinal,,
"O=C(CCCCC1CC[S][Zn][S]1)Nc1ccccc1C(=O)[O-].[Na+] (centres unmarked) [Example 8, N-(6,8-dimercaptooctanoyl)anthranilic acid sodium salt zinc chelate compound]",24.07,48.15,72.22,,,,47.64 % of control,16.74 % of control,,72.47 % of control,potent suppressive action on melanin production,comparable to Elastinal,,

# — patent publication US7700080B2, “Method of suppressing melanin production by metal chelates of lipoyl amino acid derivatives” (Senju Pharmaceutical Co., Ltd., priority 2001, dated 2010)
